Results from the NIST ThermoML archive (doi:10.1016/j.jct.2005.07.011).

Test: excess molar enthalpy (molar enthalpy of mixing); xn = mol fraction of the nth substance listed
Settings: Liquid, Flow calorimetry

CCC(C)O (stereo not given) [butan-2-ol] + COC(=O)OC
Settings	excess molar enthalpy [kcal/mol]
298.15 K, 1000 kPa, x2 = 0.05	0.126
298.15 K, 1000 kPa, x2 = 0.1	0.237
298.15 K, 1000 kPa, x2 = 0.15	0.328
298.15 K, 1000 kPa, x2 = 0.2	0.4
298.15 K, 1000 kPa, x2 = 0.25	0.459
298.15 K, 1000 kPa, x2 = 0.3	0.5033
298.15 K, 1000 kPa, x2 = 0.35	0.5352
298.15 K, 1000 kPa, x2 = 0.4	0.5549
298.15 K, 1000 kPa, x2 = 0.45	0.5664
298.15 K, 1000 kPa, x2 = 0.5	0.568
298.15 K, 1000 kPa, x2 = 0.55	0.5595
298.15 K, 1000 kPa, x2 = 0.6	0.5407
298.15 K, 1000 kPa, x2 = 0.65	0.5126
298.15 K, 1000 kPa, x2 = 0.7	0.4758
298.15 K, 1000 kPa, x2 = 0.75	0.43
298.15 K, 1000 kPa, x2 = 0.8	0.3661
298.15 K, 1000 kPa, x2 = 0.9	0.2152
298.15 K, 1000 kPa, x2 = 0.95	0.1148
313.15 K, 100 kPa, x2 = 0.051	0.124
313.15 K, 100 kPa, x2 = 0.102	0.238
313.15 K, 100 kPa, x2 = 0.148	0.323
313.15 K, 100 kPa, x2 = 0.202	0.412
313.15 K, 100 kPa, x2 = 0.251	0.4757
313.15 K, 100 kPa, x2 = 0.352	0.5707
313.15 K, 100 kPa, x2 = 0.4	0.6006
313.15 K, 100 kPa, x2 = 0.45	0.6191
313.15 K, 100 kPa, x2 = 0.501	0.6252
313.15 K, 100 kPa, x2 = 0.551	0.6211
313.15 K, 100 kPa, x2 = 0.6	0.6077
313.15 K, 100 kPa, x2 = 0.649	0.5813
313.15 K, 100 kPa, x2 = 0.701	0.5413
313.15 K, 100 kPa, x2 = 0.749	0.4921
313.15 K, 100 kPa, x2 = 0.799	0.426
313.15 K, 100 kPa, x2 = 0.849	0.345
313.15 K, 100 kPa, x2 = 0.899	0.248
313.15 K, 100 kPa, x2 = 0.951	0.128
313.15 K, 1000 kPa, x2 = 0.051	0.127
313.15 K, 1000 kPa, x2 = 0.098	0.234
313.15 K, 1000 kPa, x2 = 0.149	0.328
313.15 K, 1000 kPa, x2 = 0.198	0.411
313.15 K, 1000 kPa, x2 = 0.251	0.4777
313.15 K, 1000 kPa, x2 = 0.348	0.5696
313.15 K, 1000 kPa, x2 = 0.4	0.5987
313.15 K, 1000 kPa, x2 = 0.451	0.6176
313.15 K, 1000 kPa, x2 = 0.501	0.6242
313.15 K, 1000 kPa, x2 = 0.551	0.6223
313.15 K, 1000 kPa, x2 = 0.6	0.6059
313.15 K, 1000 kPa, x2 = 0.649	0.5827
313.15 K, 1000 kPa, x2 = 0.701	0.542
313.15 K, 1000 kPa, x2 = 0.749	0.4932
313.15 K, 1000 kPa, x2 = 0.799	0.426
313.15 K, 1000 kPa, x2 = 0.85	0.346
313.15 K, 1000 kPa, x2 = 0.899	0.248
313.15 K, 1000 kPa, x2 = 0.951	0.126
313.15 K, 10000 kPa, x2 = 0.051	0.135
313.15 K, 10000 kPa, x2 = 0.1	0.248
313.15 K, 10000 kPa, x2 = 0.15	0.344
313.15 K, 10000 kPa, x2 = 0.2	0.425
313.15 K, 10000 kPa, x2 = 0.25	0.4896
313.15 K, 10000 kPa, x2 = 0.301	0.5404
313.15 K, 10000 kPa, x2 = 0.35	0.5784
313.15 K, 10000 kPa, x2 = 0.399	0.6045
313.15 K, 10000 kPa, x2 = 0.451	0.6203
313.15 K, 10000 kPa, x2 = 0.501	0.6251
313.15 K, 10000 kPa, x2 = 0.551	0.6178
313.15 K, 10000 kPa, x2 = 0.599	0.6019
313.15 K, 10000 kPa, x2 = 0.65	0.5699
313.15 K, 10000 kPa, x2 = 0.751	0.4739
313.15 K, 10000 kPa, x2 = 0.801	0.413
313.15 K, 10000 kPa, x2 = 0.851	0.335
313.15 K, 10000 kPa, x2 = 0.901	0.238
313.15 K, 10000 kPa, x2 = 0.949	0.127
328.15 K, 1000 kPa, x2 = 0.05	0.128
328.15 K, 1000 kPa, x2 = 0.1	0.244
328.15 K, 1000 kPa, x2 = 0.15	0.345
328.15 K, 1000 kPa, x2 = 0.201	0.428
328.15 K, 1000 kPa, x2 = 0.25	0.496
328.15 K, 1000 kPa, x2 = 0.302	0.5534
328.15 K, 1000 kPa, x2 = 0.352	0.5928
328.15 K, 1000 kPa, x2 = 0.402	0.6206
328.15 K, 1000 kPa, x2 = 0.45	0.6375
328.15 K, 1000 kPa, x2 = 0.502	0.6437
328.15 K, 1000 kPa, x2 = 0.551	0.6361
328.15 K, 1000 kPa, x2 = 0.603	0.6173
328.15 K, 1000 kPa, x2 = 0.653	0.5904
328.15 K, 1000 kPa, x2 = 0.7	0.5518
328.15 K, 1000 kPa, x2 = 0.751	0.496
328.15 K, 1000 kPa, x2 = 0.802	0.4279
328.15 K, 1000 kPa, x2 = 0.9	0.2527
328.15 K, 1000 kPa, x2 = 0.95	0.1345
